In the experiment the target is α-amylase (Aspergillus oryzae, UniProt P0C1B3). Briefly: amylose hydrolysis inhibition at […], peroxidase-glucose oxidase readout. In kind it is biochemical. Particulars: read-out: % inhibition at 0.50 mM.

For the molecule `COc1cc(/C=C/C(=O)O[C@H]2CC[C@]34C[C@]35CC[C@]3(C)[C@@H]([C@H](C)CCC=C(C)C)CC[C@@]3(C)[C@@H]5CC[C@H]4C2(C)C)ccc1O` [Cycloartenyl ferulate], the inhibition at 500 µM was determined as 12.7 ± 1.11%.

What is called inhibition is the change of the read-out against control, counted positive when it falls.
